# Measurements from patent US8835617B2, “Polynucleotides encoding a human TRIM-Cyp fusion polypeptide, compositions thereof, and methods of using same” (priority 2008, dated 2014).
# How the values were obtained:
# T5-mediated restriction = test: Disruption of T5Cyp-mediated HIV-1 restriction by arsenic trioxide in CRFK cells; type: cell-based; conditions: increasing amounts
# Description: This drug was previously shown to inhibit T5-mediated restriction (Sebastian et al., 2006).
# Puromycin was used at 1 μM.
# CypA-CA interaction = conditions: CsA 2.5 μM, CRFK; DEBIO-025 in Jurkat
# Description: All chemicals were obtained from Sigma unless otherwise noted. Puromycin was used at 1 μM. […] Arsenic trioxide (As2O3) was made at 100 mM in 1N sodium hydroxide (NaOH) and then further diluted to 1 mM in phosphate buffered saline (PBS). pH was adjusted to 7.5 with hydrochloric acid and stored at 4° C.
Compound,effect on AoT5Cyp and hT5Cyp restriction activity (T5-mediated restriction),effect on HIV-1 restriction by AoT5Cyp and hT5Cyp (CypA-CA interaction)
arsenic trioxide [As2O3],blocked to the same extent,–
C/C=C/C[C@@H](C)[C@@H](O)[C@H]1C(=O)N[C@@H](CC)C(=O)N(C)[C@H](C)C(=O)N(CC)[C@@H](C(C)C)C(=O)N[C@@H](C(C)C)C(=O)N(C)[C@@H](CC(C)C)C(=O)N[C@@H](C)C(=O)N[C@H](C)C(=O)N(C)[C@@H](CC(C)C)C(=O)N(C)[C@@H](CC(C)C)C(=O)N(C)[C@@H](C(C)C)C(=O)N1C [DEBIO-025],–,Equivalent results
